From ChEMBL document CHEMBL1130806, “Enhanced potency of perfluorinated thalidomide derivatives for inhibition of LPS-induced tumor necrosis factor-alpha production is associated with a change of mechanism of action” (Bioorg Med Chem Lett, 1998)

Tests used:
Format in all cases: functional, cell-based
THP-1 = assay: Inhibition of LPS-induced Tumor necrosis factor-alpha production (TNF-alpha) in THP-1 cells; conditions: Homo sapiens
[1] = Compound was tested for the inhibition of production of IL-1 beta in human monocytes
[2] = Compound was tested for the inhibition of production of IL-6 in human monocytes

IC50 [1] [nM]	IC50 [2] [nM]	Compound	IC50 (THP-1) [nM]
		C[C@@]1(N2C(=O)c3c(F)c(F)c(F)c(F)c3C2=O)CCC(=O)NC1=O	494
		C[C@]1(N2C(=O)c3c(F)c(F)c(F)c(F)c3C2=O)CCC(=O)NC1=O	443
		COC(=O)C[C@H](c1ccc(OC)c(OC)c1)N1C(=O)c2c(F)c(F)c(F)c(F)c2C1=O	250
400	300	COC(=O)CC(c1ccc(OC)c(OC)c1)N1C(=O)c2c(F)c(F)c(F)c(F)c2C1=O (racemic)	249
		CC1(N2C(=O)c3c(F)c(F)c(F)c(F)c3C2=O)CCC(=O)NC1=O (racemic)	378
		CN1C(=O)c2c(F)c(F)c(F)c(F)c2C1=O	413
		O=C1c2c(F)c(F)c(F)c(F)c2C(=O)N1c1ccccc1	425
		CC(c1ccccc1)N1C(=O)c2c(F)c(F)c(F)c(F)c2C1=O (racemic)	415
400	700	O=C1CCC(N2C(=O)c3c(F)c(F)c(F)c(F)c3C2=O)C(=O)N1 (stereo unspecified)	490
		C[C@H](c1ccccc1)N1C(=O)c2c(F)c(F)c(F)c(F)c2C1=O	434
		COC(=O)C[C@@H](c1ccc(OC)c(OC)c1)N1C(=O)c2c(F)c(F)c(F)c(F)c2C1=O	313
		C[C@@H](c1ccccc1)N1C(=O)c2c(F)c(F)c(F)c(F)c2C1=O	367
